Source: patent US10053428B2, “5-aminotetrahydroquinoline-2-carboxylic acids and their use” (BAYER PHARMA AKTIENGESELLSCHAFT, priority 2012, dated 2018)
Blank lines part the entries; values can stand above or below the molecule they belong to.

Key:
[1] = biological target: T1, haem-containing recombinant soluble guanylate cyclase (sGC) (Rattus norvegicus, UniProt P20595); test: Stimulation of recombinant soluble guanylate cyclase (sGC) in vitro, haem-containing enzyme; format: biochemical
T1 construct: made in house; host or cells: Sf9 insect cells (baculovirus)
T1 sequence (P20595 1-619): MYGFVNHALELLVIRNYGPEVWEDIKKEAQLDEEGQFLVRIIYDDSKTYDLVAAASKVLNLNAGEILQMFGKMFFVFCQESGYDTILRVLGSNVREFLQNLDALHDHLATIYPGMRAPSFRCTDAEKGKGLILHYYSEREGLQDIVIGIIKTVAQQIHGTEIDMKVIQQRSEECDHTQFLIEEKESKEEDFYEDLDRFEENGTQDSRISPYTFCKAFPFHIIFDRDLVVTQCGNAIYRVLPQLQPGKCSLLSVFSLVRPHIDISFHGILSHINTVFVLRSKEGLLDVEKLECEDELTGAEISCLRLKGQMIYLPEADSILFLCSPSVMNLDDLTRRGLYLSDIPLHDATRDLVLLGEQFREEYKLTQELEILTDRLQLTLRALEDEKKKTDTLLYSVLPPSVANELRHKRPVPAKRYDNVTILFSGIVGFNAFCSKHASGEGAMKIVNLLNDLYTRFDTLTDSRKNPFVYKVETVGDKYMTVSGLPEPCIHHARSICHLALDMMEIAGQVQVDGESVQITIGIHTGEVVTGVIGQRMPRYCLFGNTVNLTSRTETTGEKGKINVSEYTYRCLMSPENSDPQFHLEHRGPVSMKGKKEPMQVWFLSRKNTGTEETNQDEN
T1 sequence (P19686 1-690 partner): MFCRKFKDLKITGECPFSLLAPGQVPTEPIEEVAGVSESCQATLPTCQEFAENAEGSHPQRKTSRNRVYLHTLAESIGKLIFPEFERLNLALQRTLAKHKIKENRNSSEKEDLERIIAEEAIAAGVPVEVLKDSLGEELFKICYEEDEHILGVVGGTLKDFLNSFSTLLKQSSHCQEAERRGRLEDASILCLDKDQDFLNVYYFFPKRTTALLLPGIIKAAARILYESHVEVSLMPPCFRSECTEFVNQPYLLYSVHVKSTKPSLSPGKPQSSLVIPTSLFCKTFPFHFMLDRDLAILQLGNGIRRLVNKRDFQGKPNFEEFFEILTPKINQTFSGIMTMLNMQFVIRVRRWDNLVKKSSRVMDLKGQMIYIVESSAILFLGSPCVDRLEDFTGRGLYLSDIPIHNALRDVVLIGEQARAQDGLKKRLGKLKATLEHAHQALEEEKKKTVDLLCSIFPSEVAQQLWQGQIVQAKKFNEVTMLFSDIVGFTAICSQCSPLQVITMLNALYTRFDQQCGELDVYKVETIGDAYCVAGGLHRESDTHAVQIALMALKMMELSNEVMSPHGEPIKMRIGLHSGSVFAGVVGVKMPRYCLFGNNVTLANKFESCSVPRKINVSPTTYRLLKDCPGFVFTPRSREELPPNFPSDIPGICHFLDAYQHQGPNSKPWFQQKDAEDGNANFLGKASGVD
Experimental: (§1) B-1. Stimulation of Recombinant Soluble Guanylate Cyclase (sGC) In Vitro
(§2) Investigations on the stimulation of recombinant soluble guanylate cyclase (sGC) by the compounds according to the invention with and without sodium nitroprusside, and with and without the haem-dependent sGC inhibitor 1H-1,2,4-oxadiazolo[4,3a]quinoxalin-1-one (ODQ), are carried out by the method described in detail in the following reference: M. Hoenicka, E. M. Becker, H. Apeler, T. Sirichoke, H. Schroeder, R. Gerzer and J.-P. Stasch, “Purified soluble guanylyl cyclase expressed in a baculovirus/Sf9 system: Stimulation by YC-1, nitric oxide, and carbon oxide”, J. Mol. Med 77 (1999), 14-23. The haem-free guanylate cyclase is obtained by adding Tween 20 to the sample buffer (0.5% in the final concentration).
The activation of sGC by a test substance is reported as x-fold stimulation of the basal activity. The result for Example 2 is shown in Table 1A, that for Example 23 in Table 1B and that for Example 39 in Table 1C:
[DEA/NO=2-(N,N-diethylamino)diazenolate 2-oxide; ODQ=1H-1,2,4-oxadiazolo-[4,3a]quinoxalin-1-one].

[2] = system: recombinant guanylate cyclase reporter cell line; test: sGC-activating activity in the CHO reporter cell in vitro; format: cell-based; conditions: read-out: MEC (minimum effective concentration)
Experimental: B-2. Action at a Recombinant Guanylate Cyclase Reporter Cell Line
The cellular action of the compounds according to the invention is determined at a recombinant guanylate cyclase reporter cell line, as described in F. Wunder et al., Anal. Biochem. 32, 104-112 (2005).

[3] = biological target: T2, haem-free recombinant soluble guanylate cyclase (sGC) (Rattus norvegicus, UniProt P20595); test: Stimulation of recombinant soluble guanylate cyclase (sGC) in vitro, haem-free enzyme; format: biochemical
T2 construct: made in house; host or cells: Sf9 insect cells (baculovirus)
T2 sequence (P20595 1-619): T1 sequence (P20595 1-619)
T2 sequence (P19686 1-690 partner): T1 sequence (P19686 1-690 partner)
Experimental: as §1, §2
The activation of sGC by a test substance is reported as x-fold stimulation of the basal activity. The result for Example 2 is shown in Table 1A, that for Example 23 in Table 1B and that for Example 39 in Table 1C: […]

[4] = system: saphenous artery rings; test: Vasorelaxant effect in vitro (phenylephrine-contracted saphenous artery rings); design: species or system Rabbits; conditions: rabbit saphenous artery rings; read-out: IC50 (concentration reducing phenylephrine-induced contraction by 50%)
Experimental: B-3. Vasorelaxant Effect In Vitro
Rabbits are anaesthetized and sacrificed by intravenous injection of thiopental sodium (about 50 mg/kg) and exsanguinated. The saphenous artery is removed and divided into rings 3 mm wide. The rings are mounted singly on in each case a pair of triangular hooks open at the end and made of 0.3 mm-thick special wire (Remanium®). Each ring is placed under an initial tension in 5 ml organ baths with Krebs-Henseleit solution which is at 37° C., is gassed with carbogen and has the following composition: NaCl 119 mM; KCl 4.8 mM; CaCl2×2 H2O 1 mM; MgSO4×7H2O 1.4 mM; KH2PO4 1.2 mM; NaHCO3 25 mM; glucose 10 mM; bovine serum albumin 0.001%. The force of contraction is detected with Statham UC2 cells, amplified and digitized via A/D converters (DAS-1802 HC, Keithley Instruments, Munich) and recorded in parallel on chart recorders. Contractions are induced by addition of phenylephrine.
After several (generally 4) control cycles, the substance to be investigated is added in each further run in increasing dosage, and the level of the contraction achieved under the influence of the test substance is compared with the level of the contraction reached in the last preceding run. The concentration necessary to reduce the contraction reached in the preceding control by 50% is calculated from this (IC50). The standard application volume is 5 μl. The proportion of DMSO in the bath solution corresponds to 0.1%.

[5] = system: animal model of pulmonary hypertension; conditions: cited from earlier work

- Effect of combination with the NO donor DEA/NO on sGC stimulation ([1]; combination with DEA/NO): no synergistic effect
- Stimulation (x-fold), haem-containing sGC, basal ([1]; test compound 0.01 μM): 13.7 ± 1.9 x-fold
- Stimulation (x-fold), haem-containing sGC, +0.01 μM DEA/NO ([1]; test compound 0.01 μM): 20.2 ± 3.8 x-fold
- Stimulation (x-fold), haem-containing sGC, +10 μM ODQ ([1]; test compound 0.01 μM): 63.9 ± 12.2 x-fold
- Stimulation (x-fold), haem-containing sGC, basal ([1]; test compound 0.1 μM): 31.2 ± 3.5 x-fold
- Stimulation (x-fold), haem-containing sGC, +0.01 μM DEA/NO ([1]; test compound 0.1 μM): 42.7 ± 7.2 x-fold
- Stimulation (x-fold), haem-containing sGC, +10 μM ODQ ([1]; test compound 0.1 μM): 129.2 ± 18.9 x-fold
- Stimulation (x-fold), haem-containing sGC, basal ([1]; test compound 1.0 μM): 40.2 ± 4.0 x-fold
- Stimulation (x-fold), haem-containing sGC, +0.01 μM DEA/NO ([1]; test compound 1.0 μM): 56.5 ± 10.5 x-fold
- Stimulation (x-fold), haem-containing sGC, +10 μM ODQ ([1]; test compound 1.0 μM): 172.2 ± 26.3 x-fold
- Stimulation (x-fold), haem-containing sGC, basal ([1]; test compound 10 μM): 51.6 ± 6.4 x-fold
- Stimulation (x-fold), haem-containing sGC, +0.01 μM DEA/NO ([1]; test compound 10 μM): 62.7 ± 11.0 x-fold
- Stimulation (x-fold), haem-containing sGC, +10 μM ODQ ([1]; test compound 10 μM): 189.5 ± 28.2 x-fold
- Stimulation (x-fold), haem-free sGC, basal ([3]; test compound 0.01 μM): 5.2 ± 0.6 x-fold
- Stimulation (x-fold), haem-free sGC, basal ([3]; test compound 0.1 μM): 19.9 ± 2.2 x-fold
- Stimulation (x-fold), haem-free sGC, basal ([3]; test compound 1.0 μM): 82.7 ± 10.5 x-fold
- Stimulation (x-fold), haem-free sGC, basal ([3]; test compound 10 μM): 169.5 ± 23.6 x-fold
- IC50 [4]: 3.6 nM
SMILES: Cc1ccc2oc(-c3ccc(COc4ccccc4CCN(CCCCC(=O)O)C4CCCc5nc(C(=O)O)ccc54)cc3)nc2c1 (single isomer, unassigned; enantiomer 2) [Example 2, (+)-5-{(4-Carboxybutyl)[2-(2-{[4-(5-methyl-1,3-benzoxazol-2-yl)benzyl]oxy}phenyl)ethyl]-amino}-5,6,7,8-tetrahydroquinoline-2-carboxylic acid (Enantiomer 2)]
- minimal effective concentration [2]: 1.1 nM

SMILES: O=C(O)CCCCN(CCc1ccccc1OCc1ccc(CCc2ccccc2)cc1)Cc1ccc(C(=O)O)cc1 [BAY 58-2667, cinaciguat]
- Duration of action ([5]; inhalative): did not have a sufficient duration of action
- Pulmonary arterial pressure after inhalative administration ([5]; microparticles): dose-dependent selective reduction
